# Patent publication US9000018B2, “Thiazolidin-4-one-derivatives” (Actelion Pharmaceuticals Ltd., priority 2003, dated 2015)
# Marks after values point to notes of the source that are not given here.
# Test system: circulating lymphocytes in whole blood
# Assay: number of circulating lymphocytes in whole blood of rats
# Format: in vivo, normotensive male Wistar rats
# Conditions: compared to group treated with vehicle only
# Protocol: Normotensive male Wistar rats are housed in climate-controlled conditions with a 12-hour light/dark cycle, and have free access to normal rat chow and drinking water. Blood (0.5 mL) is collected by retro-orbital sampling before drug administration, and 3 and 6 h thereafter. Blood cell count is measured in whole blood using a Beckman-Coulter Synchron CX5 Pro cytometer. Statistical analysis of lymphocyte counts are performed by analysis of variance (ANOVA) using Statistica (StatSoft) and the Student-Newman-Keuls procedure for multiple comparisons. Thus, compounds of the invention decrease the number of circulating lymphocytes in whole blood when compared to pre-drug values.
# [1] = 6 h after oral administration of 10 mg/kg to normotensive male Wistar rats
Structure (SMILES),Lymphocyte counts [1],"Lymphocyte counts (at 3 mg/kg p.o., 6 h after oral administration to normotensive male Wistar rats)"
"Cc1ccccc1N1C(=O)/C(=C/c2ccc(OCC(O)CO)c(Cl)c2)S/C1=N\C(C)C (racemic) [Example 24, rac-5-[3-chloro-4-(2,3-dihydroxy-propoxy)-benz[Z]ylidene]-2-([Z]-isopropylimino)-3-o-tolyl-thiazolidin-4-one]",−54%,–
"Cc1cccc(N2C(=O)/C(=C/c3ccc(OCC(O)CO)c(Cl)c3)S/C2=N\C(C)C)c1C (racemic) [Example 46, rac-5-[3-chloro-4-(2,3-dihydroxy-propoxy)-benz[Z]ylidene]-3-(2,3-dimethyl-phenyl)-2-([Z]-isopropylimino)-thiazolidin-4-one]",−37%,–
"CCC/N=C1\S/C(=C\c2ccc(OCC(O)CO)c(Cl)c2)C(=O)N1c1ccccc1 (racemic) [Example 77, rac-5-[3-chloro-4-(2,3-dihydroxy-propoxy)-benz[Z]ylidene]-3-phenyl-2-([Z]-propylimino)-thiazolidin-4-one]",−55%,–
"CCC/N=C1\S/C(=C\c2ccc(OCC(O)CO)c(Cl)c2)C(=O)N1c1ccccc1C (racemic) [Example 84, rac-5-[3-chloro-4-(2,3-dihydroxy-propoxy)-benz[Z]ylidene]-2-([Z]-propylimino)-3-o-tolyl-thiazolidin-4-one]",−68%,–
"CCC/N=C1\S/C(=C\c2ccc(OCC(O)CO)c(Cl)c2)C(=O)N1c1cccc(C)c1C (racemic) [Example 95, rac-5-[3-chloro-4-(2,3-dihydroxy-propoxy)-benz[Z]ylidene]-3-(2,3-dimethyl-phenyl)-2-([Z]-propylimino)-thiazolidin-4-one]",−53%,–
"CC(C)/N=C1\S/C(=C\c2ccc(OCCO)cc2)C(=O)N1c1ccccc1 [Example 4, 5-[4-(2-Hydroxy-ethoxy)-benz-(Z)-ylidene]-2-[(Z)-isopropylimino]-3-phenyl-thiazolidin-4-one]",−32%,–
"CC(C)/N=C1\S/C(=C\c2ccc(OCCO)c(Cl)c2)C(=O)N1c1ccccc1 [Example 7, 5-[3-Chloro-4-(2-hydroxy-ethoxy)-benz-(Z)-ylidene]-2-[(Z)-isopropylimino]-3-phenyl-thiazolidin-4-one]",−67%,–
"Cc1cccc(N2C(=O)/C(=C/c3ccc(OCCO)c(Cl)c3)S/C2=N\C(C)C)c1C [Example 42, 5-[3-chloro-4-(2-hydroxy-ethoxy)-benz[Z]ylidene]-3-(2,3-dimethyl-phenyl)-2-([Z]-isopropylimino)-thiazolidin-4-one]",−23%,–
"CCC/N=C1\S/C(=C\c2ccc(OCCO)c(Cl)c2)C(=O)N1c1ccccc1 [Example 75, 5-[3-chloro-4-(2-hydroxy-ethoxy)-benz[Z]ylidene]-3-phenyl-2-([Z]-propylimino)-thiazolidin-4-one]",−47%,–
"CCC/N=C1\S/C(=C\c2ccc(OCCO)c(C)c2)C(=O)N1c1ccccc1 [Example 76, 5-[4-(2-hydroxy-ethoxy)-3-methyl-benz[Z]ylidene]-3-phenyl-2-([Z]-propylimino)-thiazolidin-4-one]",−58%,–
"CCC/N=C1\S/C(=C\c2ccc(OC[C@H](O)CO)c(Cl)c2)C(=O)N1c1ccccc1C [Example 85, 5-[3-chloro-4-((2R)-2,3-dihydroxy-propoxy)-benz-(Z)-ylidene]-2-[(Z)-propylimino]-3-o-tolyl-thiazolidin-4-one]",−63%,–
"CCC/N=C1\S/C(=C\c2ccc(OC[C@@H](O)CO)c(Cl)c2)C(=O)N1c1ccccc1C [Example 86, (S)-5-[3-chloro-4-(2,3-dihydroxy-propoxy)-benz[Z]ylidene]-2-([Z]-propylimino)-3-o-tolyl-thiazolidin-4-one]",–,−30* %
"CCC/N=C1\S/C(=C\c2ccc(OCCO)c(Cl)c2)C(=O)N1c1cccc(C)c1C [Example 91, 5-[3-chloro-4-(2-hydroxy-ethoxy)-benz[Z]ylidene]-3-(2,3-dimethyl-phenyl)-2-([Z]-propylimino)-thiazolidin-4-one]",−35%,–
"CN(C)N=C1SC(=Cc2ccc(OCCO)cc2)C(=O)N1c1ccccc1 [Example 100, 2-(dimethyl-hydrazono)-5-[4-(2-hydroxy-ethoxy)-benz[Z]ylidene]-3-phenyl-thiazolidin-4-one]",−53%,–
"CC/N=C1\S/C(=C\c2ccc(OCCO)c(Cl)c2)C(=O)N1c1ccccc1 [Example 103, 5-[3-chloro-4-(2-hydroxy-ethoxy)-benz[Z]ylidene]-2-([Z]-Ethylimino)-3-phenyl-thiazolidin-4-one]",−47%,–
"CC/N=C1\S/C(=C\c2ccc(OCCO)c(Cl)c2)C(=O)N1c1cccc(C)c1C [Example 110, 5-[3-chloro-4-(2-hydroxy-ethoxy)-benz[Z]ylidene]-3-(2,3-dimethyl-phenyl)-2-([Z]-ethylimino)-thiazolidin-4-one]",−30%,–
"CC(C)/N=C1\S/C(=C\c2ccc(OCCO)c(Cl)c2)C(=O)N1C(C)C [Example 130, 5-[3-chloro-4-(2-hydroxy-ethoxy)-benz[Z]ylidene]-3-isopropyl-2-([Z]-isopropylimino)-thiazolidin-4-one]",−26%,–
